According to patent publication US6239131A, “1,5 Benzodiazepine derivatives” (Zeria Pharmaceutical Co., Ltd., priority 1996, dated 2001):

Key:
CCK-B receptors = molecular target: T1, CCK-B receptors (Cavia porcellus, UniProt H0VZC5); assay: Measurement of Binding Affinity for CCK-B Receptors; parameters: species or system Hartley-strain guinea pig; details: inhibition of specific [3H]CCK-8 (1.0 nM) binding; guinea pig cerebral cortex; 25° C., 2 hours; pH 6.5; read-out: Ki (CCK-B receptors)
T1 construct: Cerebral cortices were removed from Hartley-strain guinea pigs, the cerebral cortices were homogenized; from tissue; host or cells: cerebral cortex of Hartley-strain guinea pigs, crude membrane pellet
T1 sequence (H0VZC5 1-426): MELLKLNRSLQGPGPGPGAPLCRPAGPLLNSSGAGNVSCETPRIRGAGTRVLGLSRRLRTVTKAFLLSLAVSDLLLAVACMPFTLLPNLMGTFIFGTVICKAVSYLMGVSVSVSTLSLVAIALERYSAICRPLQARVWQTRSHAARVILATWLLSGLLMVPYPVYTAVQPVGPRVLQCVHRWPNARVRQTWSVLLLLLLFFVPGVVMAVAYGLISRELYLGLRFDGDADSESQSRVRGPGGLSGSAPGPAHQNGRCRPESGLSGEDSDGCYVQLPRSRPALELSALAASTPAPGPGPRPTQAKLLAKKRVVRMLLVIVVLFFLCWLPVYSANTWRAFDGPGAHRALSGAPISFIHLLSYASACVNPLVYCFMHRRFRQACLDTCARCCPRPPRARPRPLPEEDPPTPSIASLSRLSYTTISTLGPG
Protocol: Cerebral cortices were removed from Hartley-strain guinea pigs, the cerebral cortices were homogenized in 50 volumes of 50 mM Tris-HCl buffer (pH7.4) and centrifuged at 50000×g for 10 minutes. The Tris-HCl buffer was added to the pellet and recentrifuged as above two times. The final pellet was rehomogenized in 10 mM HEPES buffer (pH 6.5, which hereinafter be abbreviated as "solvent") containing 5 mM MgCl2, 1 mM EGTA, 0.25 mg/ml bacitracin and 130 mM NaCl, and used as the receptor preparation.
Binding assay was measured as follows. Fifty μl of [^3 H]CCK-8 (at the final concentration of 1.0 nM) and 900 μl of the receptor preparation (800 μg protein/tube) were added to 50 μl of either solvent, CCK-8 (1 μM) or a test compound. These ware reacted at 25° C. for 2 hours. After the reaction, the mixture was filtrated through Whatman GF/B filter presoaked in 0.1% BSA. The filter was washed with 3 ml of ice-cold 50 mM Tris-HCl buffer (pH 7.4) four times, immediately after the filtration. The filter was soaked in the ACS-II scintillation cocktail for a day and radioactivity was measured using a liquid scintillation counter. Non-specific binding was defined as the radioactivity in the presence of 1 μM CCK-8. Specific binding was defined as the difference between total binding (used solvent without CCK-8) and non-specific binding. Inhibitor dissociation constant (Ki) of each test compound was determined from the inhibition of specific [^3 H]CCK-8 binding.

[1] = tested on: pentagastrin-stimulated acid secretion; assay: Measurement of Inhibition of Pentagastrin-stimulated Acid Secretion; format: in vivo, male Sprague-Dawley (SD)-strain rats; details: intraduodenal, rat, acid output from 1 to 4 hours after administration, pentagastrin 15 μg/kg/hr
Protocol: Male Sprague-Dawley (SD)-strain rats were used. Each rat was operated to ligate the pylorus, and equip with a duodenal catheter and gastric fistula under a ether anesthesia. After the operation, each rat was placed in a Bollman-type cage and continuously infused pentagastrin (15 μg/kg/hr) through the tail vein. Test compounds were suspended in 0.5% aqueous sodium carboxymethylcellulose (which hereinafter be abbreviated as "vehicle"). Vehicle or test compound was administered through the intraduodenal catheter 1 hour after the beginning of pentagastrin infusion. Acidity of the collected gastric juice was measured by an automatic titillation device. Acid output was determined by multiplying the volume by the acidity of gastric juice. […] [formula]

CCK-A receptors = molecular target: T2, CCK-A receptors (Cavia porcellus, UniProt Q63931); assay: Measurement of Binding Affinity for CCK-A Receptors; parameters: species or system Hartley-strain guinea pig; details: inhibition of specific [3H]L-364,718 (0.2 nM) binding; guinea pig pancreas; 25° C., 2 hours; pH 6.5
T2 construct: Pancreases were removed from Hartley-strain guinea pigs, the pancreases were homogenized; from tissue; host or cells: pancreas of Hartley-strain guinea pigs, crude membrane pellet
T2 sequence (Q63931 1-430): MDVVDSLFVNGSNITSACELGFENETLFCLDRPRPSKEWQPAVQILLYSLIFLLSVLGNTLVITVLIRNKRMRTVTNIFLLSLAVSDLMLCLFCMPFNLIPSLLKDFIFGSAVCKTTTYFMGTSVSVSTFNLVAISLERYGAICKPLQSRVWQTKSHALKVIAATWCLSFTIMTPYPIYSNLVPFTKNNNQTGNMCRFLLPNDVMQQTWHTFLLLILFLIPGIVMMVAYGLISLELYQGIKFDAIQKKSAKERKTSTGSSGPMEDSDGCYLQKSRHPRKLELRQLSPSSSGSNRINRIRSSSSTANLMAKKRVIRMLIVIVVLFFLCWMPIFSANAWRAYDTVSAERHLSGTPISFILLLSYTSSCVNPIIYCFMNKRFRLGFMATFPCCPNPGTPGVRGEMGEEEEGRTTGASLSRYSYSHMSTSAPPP
Protocol: Pancreases were removed from Hartley-strain guinea pigs, the pancreases were homogenized in 40 volumes of 10 mM PIPES buffer (pH 6.5, which hereinafter be abbreviated as "solvent") containing 1 mM EGTA, 30 mM MgCl2, 0.02% bacitracin, 0.02% soybean trypsin inhibitor and 0.3 M sucrose. The homogenate was filtrated through gauze and centrifuged at 50000×g for 10 minutes. Solvent was added to the pellet and recentrifuged as above. The final pellet thus obtained was homogenized in 40 volumes of solvent and used as the receptor preparation.
Binding assay was measured as follows. Fifty μl of [^3 H]L-364, 718 (at the final concentration of 0.2 nM) and 900 μl of the receptor preparation (50 μg protein/tube) were added to 50 μl of solvent, or L-364, 718 (1 μM) or a test compound. This mixture was incubated at 25° C. for 2 hours. After the reaction, the mixture was filtrated through Whatman GF/B filter presoaked in 0.1% BSA (bovine serum albumin). The filter was washed with 3 ml of ice-cold 10 mM PIPES buffer (pH 6.5) three times, immediately after the filtration. The filter was soaked in the ACS-II scintillation cocktail for one day and radioactivity was measured using a liquid scintillation counter. Non-specific binding was defined as the radioactivity in the presence of 1 μM L-364, 718. Specific binding was defined as the difference between total binding (used solvent without L-364, 718) and non-specific binding. lnhibitor dissociation constant (Ki) of each test compound was determined from the inhibition of specific [^3 H]L-364, 718 binding.

| Structure (SMILES) | Ki (CCK-B receptors) [nM] | Ki (CCK-A receptors) [nM] | further results |
| --- | --- | --- | --- |
| Cc1cccc(NC(=O)NC2CN(C(=O)C(C)(C)C)c3ccccc3N(CC(=O)c3ccccc3C)C2=O)c1 (stereo not shown) [Example 1, 1-[1-(2-toluoylmethyl)-2-oxo-5-pivaloyl-1,3,4,5-tetrahydro-2H-1,5-benzodiazepin-3-yl]-3-(3-methylphenyl)urea] | 6.47 | – | inhibition in vivo at 30 mg/kg [1]: 59.4% |
| CC(C)(C)C(=O)CN1C(=O)C(NC(=O)Nc2cccc(C(=O)O)c2)CN(C(=O)C(C)(C)C)c2ccccc21 (stereo not shown) [Example 10, 3-[3-(1-tert-butylcarbonylmethyl-2-oxo-5-pivaloyl-1,3,4,5-tetrahydro-2H-1,5-benzodiazepin-3-yl)ureido]benzoic acid] | 6.87 | – | inhibition in vivo at 10 mg/kg ([1]; 10 mg/kg, read-out: % Inhibition of acid output): 67.1% |
| Cc1cccc(NC(=O)NC2CN(C(=O)C3CCCCC3)c3ccccc3N(CC(=O)c3ccccc3C)C2=O)c1 (stereo not shown) [Example 14, 1-[1-(2-toluoylmethyl)-2-oxo-5-cyclohexylcarbonyl-1,3,4,5-tetrahydro-2H-1,5-benzodiazepin-3-yl]-3-(3-methylphenyl)urea] | – | 13.2 | – |
| CC(C)(C)OC(=O)CN1C(=O)C(NC(=O)Nc2cccc(C(=O)O)c2)CN(c2ccccc2)c2ccccc21 (stereo not shown) [Example 80, 3-[3-[1-tert-butoxycarbonylmethyl-2-oxo-5-phenyl-1,3,4,5-tetrahydro-2H-1,5-benzodiazepin-3-yl]ureido]benzoic acid] | 2.62 | – | inhibition in vivo at 3 mg/kg [1]: 45.4% |
| Cc1ccc2c(c1)N(CC(=O)c1ccccc1C)C(=O)C(NC(=O)Nc1cccc(C(=O)O)c1)CN2C(=O)C(C)(C)CCl (stereo not shown) [Example 94, 3-[3-[1-(2-toluoylmethyl)-2-oxo-5-(3-chloro-2,2-dimethylpropionyl)-8-methyl-1,3,4,5-tetrahydro-2H-1,5-benzodiazepin-3-yl]ureido]benzoic acid] | 1.62 | – | inhibition in vivo at 30 mg/kg [1]: 93.3% |
| CC(=O)N1CC(NC(=O)Nc2cccc(C(=O)O)c2)C(=O)N(CC(=O)c2ccccc2C)c2cc(C)ccc21 (stereo not shown) [Example 111, 3-[3-[1-(2-toluoylmethyl)-2-oxo-5-acetyl-8-methyl-1,3,4,5-tetrahydro-2H-1,5-benzodiazepin-3-yl]ureido]benzoic acid] | – | 6.34 | – |
| Cc1ccc2c(c1)N(CC(=O)c1ccco1)C(=O)C(NC(=O)Nc1cccc(C(=O)O)c1)CN2C(=O)C(C)(C)C (stereo not shown) [Example 114, 3-[3-[1-(furan-2-yl)carbonylmethyl-2-oxo-5-pivaloyl-8-methyl-1,3,4,5-tetrahydro-2H-1,5-benzodiazepin-3-yl]ureido]benzoic acid] | 9.43 | – | inhibition in vivo at 30 mg/kg [1]: 89.7% |
| CC(C)(C)C(=O)CN1C(=O)[C@H](NC(=O)Nc2cccc(C(=O)O)c2)CN(C2CCCCC2)c2ccccc21 [Example 143, (R)-(-)-3-[3-(1-tert-butylcarbonylmethyl-2-oxo-5-cyclohexyl-1,3,4,5-tetrahydro-2H-1,5-benzodiazepin-3-yl)ureido]benzoic acid] | 0.63 | – | inhibition in vivo at 0.1 mg/kg ([1]; 0.1 mg/kg): 54.6% |

The next lines start with results.

| Ki (CCK-B receptors) [nM] | Ki (CCK-A receptors) [nM] | Structure (SMILES) | further results |
| --- | --- | --- | --- |
| 0.77 | 303 | CC(C)(C)C(=O)CN1C(=O)C(NC(=O)Nc2cccc(C(=O)O)c2)CN(c2ccccc2)c2ccccc21 (racemic) [Example 70 (racemate), 3-[3-(1-tert-butylcarbonylmethyl-2-oxo-5-phenyl-1,3,4,5-tetrahydro-2H-1,5-benzodiazepin-3-yl)ureido]benzoic acid] | inhibition in vivo at 3 mg/kg [1]: 76.5% |
| 0.36 | 255 | CC(C)(C)C(=O)CN1C(=O)C(NC(=O)Nc2cccc(C(=O)O)c2)CN(c2ccccc2)c2ccccc21 (single isomer, unassigned; (-)) [Example 70 (-form), (-)-3-[3-(1-tert-butylcarbonylmethyl-2-oxo-5-phenyl-1,3,4,5-tetrahydro-2H-1,5-benzodiazepin-3-yl)ureido]benzoic acid] | inhibition in vivo at 1 mg/kg [1]: 84.8% |
| 0.11 | 16.7 | CC(C)(C)C(=O)CN1C(=O)C(NC(=O)Nc2cccc(SCC(=O)O)c2)CN(c2ccccc2)c2ccccc21 (single isomer, unassigned; (-)) [Example 88 (-form)] | inhibition in vivo at 1 mg/kg [1]: 68.4% |
| 1.59 | 367 | Cc1ccc2c(c1)N(CC(=O)C(C)(C)C)C(=O)C(NC(=O)Nc1cccc(C(=O)O)c1)CN2c1ccccc1 (single isomer, unassigned; (-)) [Example 97, (-)-3-[3-(1-tert-butylcarbonylmethyl-2-oxo-5-phenyl-8-methyl-1,3,4,5-tetrahydro-2H-1,5-benzodiazepin-3-yl)ureido]benzoic acid] | – |
| – | 14.3 | Cc1cccc(NC(=O)NC2CN(C(=O)C3CCCC3)c3ccccc3N(CC(=O)c3ccccc3C)C2=O)c1 (stereo not shown) [Example 28, 1-[1-(2-toluoylmethyl)-2-oxo-5-cyclopentylcarbonyl-1,3,4,5-tetrahydro-2H-1,5-benzodiazepin-3-yl]-3-(3-methylphenyl)urea] | – |
| 2.26 | – | Cc1ccc2c(c1)N(CC(=O)C(C)(C)C)C(=O)C(NC(=O)Nc1cccc(C(=O)O)c1)CN2c1ccccc1 (stereo not shown) [Example 95, 3-[3-(1-tert-butylcarbonylmethyl-2-oxo-5-phenyl-8-methyl-1,3,4,5-tetrahydro-2H-1,5-benzodiazepin-3-yl]ureido]benzoic acid] | inhibition in vivo at 1 mg/kg [1]: 49% |
| 1.2 | – | CC(C)(C)C(=O)CN1C(=O)C(NC(=O)Nc2cccc(C(=O)O)c2)CN(C2CCCCC2)c2ccccc21 (stereo not shown) [Example 121, 3-[3-(1-tert-butylcarbonylmethyl-2-oxo-5-cyclohexyl-1,3,4,5-tetrahydro-2H-1,5-benzodiazepin-3-yl)ureido]benzoic acid] | inhibition in vivo at 0.3 mg/kg ([1]; 0.3 mg/kg): 47% |
| 0.21 | – | CC(C)(C)C(=O)CN1C(=O)[C@H](NC(=O)Nc2cccc(C(=O)NS(C)(=O)=O)c2)CN(C2CCCCC2)c2ccccc21 [Example 168, (R)-(-)-1-(1-tert-butylcarbonylmethyl-2-oxo-5-cyclohexyl-1,3,4,5-tetrahydro-2H-1,5-benzodiazepin-3-yl)-3-(3-methylsulfonylaminocarbonylphenyl)urea] | inhibition in vivo at 1 mg/kg [1]: 58.9% |
| 0.1 | – | CC(C)(C)C(=O)CN1C(=O)[C@H](NC(=O)Nc2cccc(SCC(=O)O)c2)CN(C2CCCCC2)c2ccccc21 [Example 169, (R)-(-)-3-[3-(1-tert-butylcarbonylmethyl-2-oxo-5-cyclohexyl-1,3,4,5-tetrahydro-2H-1,5-benzodiazepin-3-yl)ureido]phenylthioacetic acid] | inhibition in vivo at 1 mg/kg [1]: 75.2% |
